Laboratory results: patent publication US20120193574A1, “Method Of Controlling Crystallization” (University of Durham, priority 2009, published 2012)
Entries after “also recorded” stand apart in the source; their conditions may differ. Blank lines part the entries; values can stand above or below the molecule they belong to.

Legend:
[1] = cited from earlier work
[2] = Crystallisation in microemulsions under confinement; polymorph of the crystals by FTIR, TEM electron diffraction or Raman; assay type: physicochemical
Method: Nanocrystals within the microemulsions were analysed by placing drops of the microemulsion onto TEM holey carbon grids and placing in a TEM. Nanocrystal images were taken and selected area electron diffraction patterns from the nanocrystals were captured, from which their polymorphic form could be determined.
Crystals/crystal aggregates were typically extracted via filtration. X-ray diffraction and/or FTIR and/or Raman microscopy techniques were used to determine the polymorph(s) of the extracted crystals/crystal aggregates.
A glycine microemulsion was prepared at ambient temperature containing 4.2 g heptane, 2.8 g of a 1:1 mass ratio of Span 80 and Brij 30, and 0.25 g of glycine solution containing 4% by mass of glycine in water. The microemulsion was shaken by hand to ensure homogeneous mixing. To this was added a microemulsion containing 1.8 g heptane, 2.8 g of a 1:1 mass ratio of Span 80 and Brij 30, 1 g of methanol and 0.25 g of water, with subsequent shaking to ensure homogeneous mixing. The resulting supersaturation ratio (c/csat) was 2.3. The resultant microemulsion was left to stand for 3 weeks at 25° C. […]
ROY microemulsions were prepared at ambient temperatures containing 10% by mass of Igepal CA720 in water and 30 μl/g or 60 μl/g of a ROY in toluene solution containing between 8% to 10% by mass of ROY. […] The crystals/crystal aggregates were extracted by filtration. […]

[3] = Supersaturated solutions stabilised due to confinement in microemulsions; visual inspection or optical microscopy on standing; assay type: physicochemical
Method: Glycine microemulsions prepared at ambient temperature containing 4.2 g heptane, 2.8 g of a 1:1 mass ratio of Span 80 and Brij 30, and 0.25 g of glycine solution containing 3-3.5% by mass of glycine in water. The microemulsion was shaken by hand to ensure homogeneous mixing. To this was added a microemulsion containing 1.8 g heptane, 2.8 g of a 1:1 mass ratio of Span 80 and Brij 30, 1 g of methanol and 0.25 g of water, with subsequent shaking to ensure homogeneous mixing. The resulting supersaturation ratio (c/csat) was at 1.7-2.0, i.e. sufficient to cause fast crystallisation of metastable forms in an unconfined system.
Glycine microemulsions prepared at 50° C. containing hexadecane, 15% by mass of a 1:1 mass ratio of Span 20 and Span 80, 1% by mass of ethanol and 1% by mass of a glycine aqueous solution containing 2.5% by mass of glycine. The microemulsion was placed in a water bath at 50° C. and cooled to 26° C. over 24 hours. The resulting supersaturation ratio (c/csat) was at least 4, i.e. sufficient to cause rapid crystallisation in an unconfined system.
ROY microemulsions prepared at ambient temperatures containing 10% by mass of Igepal CA720 in water, 30 μl/g of a toluene solution containing 6% by mass of ROY and 12 μl/g of heptane. The resulting supersaturation ratio (c/csat) was at least 4, i.e. sufficient to cause crystallisation typically within a few hours in an unconfined system.
The mefenamic acid-in-DMF bulk solutions and microemulsions, were prepared at elevated temperature (˜50-60° C.). The microemulsion consisted of 3 g of AOT solution containing 3% by mass of AOT in heptane to which was added 20 μl of a mefenamic acid solution containing 70-75 mg of mefenamic acid per ml DMF. The microemulsion was cooled from 50 to 8° C. over 12 hours and then left at 8° C. The resulting supersaturation ratio (c/csat) was 3.9-4.1, i.e. sufficient to cause crystallisation of metastable form II typically within a few hours in an unconfined system.

Molecule: Cc1cc(C#N)c(Nc2ccccc2[N+](=O)[O-])s1 [ROY, 5-Methyl-2-[(2-nitrophenyl)amino]-3-thiophenecarbonitrile]
- energy of yellow prism form below the orange needle and orange prism forms ([1]; ambient temperatures): ~0.0717 kcal/mol
- polymorph of crystals/crystal aggregates (FTIR) ([2]; Example 5: Igepal CA720/water microemulsion, 8% to 10% ROY in toluene, dropwise heptane antisolvent, ambient): yellow prism polymorph of ROY
- crystals by visual inspection or optical microscopy on standing ([3]; 6% ROY in toluene, Igepal CA720/water microemulsion with heptane, after 1 month): No crystals were observed
- resulting supersaturation ratio (c/csat) ([3]; 6% by mass ROY in toluene, 30 μl/g, Igepal CA720/water microemulsion, 12 μl/g heptane): at least 4

B1: egg white albumin: Albumin is used to exemplify how protein crystallisation can be achieved (protein, UniProt P01012 2-386, looked up)
Ovalbumin: GSIGAASMEFCFDVFKELKVHHANENIFYCPIAIMSALAMVYLGAKDSTRTQINKVVRFDKLPGFGDSIEAQCGTSVNVHSSLRDILNQITKPNDVYSFSLASRLYAEERYPILPEYLQCVKELYRGGLEPINFQTAADQARELINSWVESQTNGIIRNVLQPSSVDSQTAMVLVNAIVFKGLWEKAFKDEDTQAMPFRVTEQESKPVQMMYQIGLFRVASMASEKMKILELPFASGTMSMLVLLPDEVSGLEQLESIINFEKLTEWTSSNVMEERKIKVYLPRMKMEEKYNLTSVLMAMGITDVFSSSANLSGISSAESLKISQAVHAAHAEINEAGREVVGSAEAGVDAASVSEEFRADHPFLFCIKHIATNAVLFFGRCVSP
- crystallisation observed by optical microscopy ([2]; Example 6: isooctane/AOT microemulsion, 5 mg albumin per ml water, methanol microemulsion added, after 48 hours): crystals observed

Second part, led by results:

- resulting supersaturation ratio (c/csat) ([2]; Example 1: 4% by mass glycine solution in heptane/Span 80/Brij 30 microemulsion plus methanol antisolvent microemulsion): 2.3
- resulting supersaturation ratio (c/csat) ([3]; 2.5% by mass glycine solution, hexadecane/Span 20/Span 80 microemulsion cooled 50 to 26° C. over 24 hours): at least 4
- crystals by visual inspection or optical microscopy on standing ([3]; 2.5% glycine solution, hexadecane/Span 20/Span 80 microemulsion cooled to 26° C., after 1 month): No crystals were observed
- resulting supersaturation ratio (c/csat) ([3]; 3-3.5% by mass glycine solution, heptane/Span 80/Brij 30 microemulsion plus methanol microemulsion): 1.7-2.0
- crystals by visual inspection or optical microscopy on standing ([3]; microemulsion from 3% by mass glycine in water, after 3 months): No crystals were observed
- crystals by visual inspection or optical microscopy on standing ([3]; microemulsion from 3.5% glycine in water, after 3 months): only a few μm sized crystals apparent
Molecule: NCC(=O)O [glycine]
- temperatures at which the γ-phase is the most stable ambient pressure form ([1]; ambient pressure): < 165 °C
- energy of γ-phase below the α-phase ([1]; ambient temperatures): ~0.0478 kcal/mol
- energy of γ-phase below the β-phase ([1]; ambient temperatures): ~0.143 kcal/mol
- stability of γ-polymorph over α-polymorph in the bulk phases ([1]; bulk phases): ~0.048 kcal/mol
- polymorph of extracted crystals (FTIR) ([2]; Example 1: methanol antisolvent microemulsion added, c/csat 2.3, 3 weeks at 25° C.): predominantly of γ-glycine; also recorded: stable γ-polymorph of glycine with virtually no α-polymorph
- polymorph of nanocrystals/nanocrystal aggregates (TEM) ([2]; Example 2: hexadecane/Span 20/Span 80 microemulsion, 7% glycine solution, cooled 50 to 25° C. over 24 hours, after 7 days): predominantly of γ-glycine; also recorded: hexagonal γ-polymorph of glycine
- polymorph of crystals/crystal aggregates (FTIR) ([2]; Example 3: heptane/Span 80/Brij 30 microemulsion, 4% glycine solution, vapour diffusion of methanol, ambient temperature): predominantly the γ-polymorph of glycine with some α-polymorph

- resulting supersaturation ratio (c/csat) ([2]; Example 4: 80-100 mg mefenamic acid per ml DMF in AOT/heptane microemulsion cooled from 50 to 8° C.): 4.4-5.5
- resulting supersaturation ratio (c/csat) ([3]; 70-75 mg mefenamic acid per ml DMF in AOT/heptane microemulsion cooled from 50 to 8° C.): 3.9-4.1
- crystals by visual inspection or optical microscopy on standing ([3]; 70-75 mg/ml mefenamic acid in DMF, AOT/heptane microemulsion at 8° C., after 1 month): No crystals were observed
Molecule: Cc1cccc(Nc2ccccc2C(=O)O)c1C [mefenamic acid]
- polymorph from crystallization in bulk DMF ([1]; irrespective of rate of crystallization or crystallization temperature): only produces the metastable form II
- polymorph of crystals (Raman) ([2]; Example 4: DMF-in-heptane/AOT microemulsion cooled from 50 to 8° C. over 12 hours): predominantly of Form I; also recorded: characteristic Form I peaks
